Results published in US8865698B2, “Method of treatment using substituted pyrazolo[1,5-a]pyrimidine compounds” (Array BioPharma Inc., priority 2008, dated 2014).

Biological target: histidine-tagged recombinant human TrkA, cytoplasmic domain (Homo sapiens (Human), UniProt P04629)
Assay: TrkA ELISA Assay
Type: biochemical
Conditions: 2.5 nM TrkA, 500 μM ATP, 25 minutes; read-out: TrkA Elisa Enzyme IC50
Description: An enzyme-linked immunosorbant assay (ELISA) was used to assess TrkA kinase activity in the presence of inhibitors. Immulon 4HBX 384-well microtiter plates (Thermo part #8755) were coated with a 0.025 mg/mL solution of poly (Glu, Ala, Tyr; 6:3:1; Sigma P3899). Various concentrations of test compound, 2.5 nM TrkA (Invitrogen Corp., histidine-tagged recombinant human TrkA, cytoplasmic domain), and 500 μM ATP were incubated for 25 minutes at ambient temperature in the coated plates while shaking. The assay buffer consisted of 25 mM MOPS pH 7.5, 0.005% (v/v) Triton X-100 and 5 mM MgCl2. The reaction mixture was removed from the plate by washing with PBS containing 0.1% (v/v) Tween 20. The phosphorylated reaction product was detected using 0.2 μg/mL of a phosphotyrosine specific monoclonal antibody (clone PY20) conjugated to horseradish peroxidase in conjunction with the TMB Peroxidase Substrate System (KPL). After the addition of 1M phosphoric acid, the chromogenic substrate color intensity was quantitated via absorbance at 450 nm. IC50 values were calculated using either a 4 or 5-parameter logistic curve fit.

histidine-tagged recombinant human TrkA, cytoplasmic domain, sequence (P04629 440-796): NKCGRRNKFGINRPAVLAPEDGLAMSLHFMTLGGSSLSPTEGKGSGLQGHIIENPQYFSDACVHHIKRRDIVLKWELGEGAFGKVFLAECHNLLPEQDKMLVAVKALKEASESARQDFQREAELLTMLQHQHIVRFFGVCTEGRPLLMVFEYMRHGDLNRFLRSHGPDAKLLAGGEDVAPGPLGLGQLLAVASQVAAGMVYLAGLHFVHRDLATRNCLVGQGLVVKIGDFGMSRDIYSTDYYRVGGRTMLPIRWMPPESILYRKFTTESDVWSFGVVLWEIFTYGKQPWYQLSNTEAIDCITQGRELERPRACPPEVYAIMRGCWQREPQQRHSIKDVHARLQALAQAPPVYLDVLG

SMILES | IC50
CC(C)(C(=O)Nc1cnn2ccc(N3CCC[C@@H]3c3cc(F)ccc3F)nc12)n1cncn1 [Example 56, (R)—N-(5-(2-(2,5-difluorophenyl)pyrrolidin-1-yl)pyrazolo[1,5-a]pyrimidin-3-yl)-2-methyl-2-(1H-1,2,4-triazol-1-yl)propanamide] | 14.4 nM
COC(=O)C(=O)Nc1cnn2ccc(N3CCC[C@@H]3c3cc(F)ccc3F)nc12 [Example 104, (R)-methyl 2-(5-(2-(2,5-difluorophenyl)pyrrolidin-1-yl)pyrazolo[1,5-a]pyrimidin-3-ylamino)-2-oxoacetate] | 7.65 nM
CN(C)C(=O)Nc1cnn2ccc(N3CCC[C@@H]3c3cc(F)ccc3F)nc12 [Example 2, (R)-3-(5-(2-(2,5-difluorophenyl)pyrrolidin-1-yl)pyrazolo[1,5-a]pyrimidin-3-yl)-1,1-dimethylurea] | 15.8 nM
O=C(Nc1ccccc1)Nc1cnn2ccc(N3CCC[C@@H]3c3cc(F)ccc3F)nc12 [Example 4, (R)-1-(5-(2-(2,5-difluorophenyl)pyrrolidin-1-yl)pyrazolo[1,5-a]pyrimidin-3-yl)-3-phenylurea] | 5 nM
O=C(Nc1cnn2ccc(N3CCC[C@@H]3c3cc(F)ccc3F)nc12)C1CC(O)C1 (stereo partly drawn) [Example 96, (R)—N-(5-(2-(2,5-difluorophenyl)pyrrolidin-1-yl)pyrazolo[1,5-a]pyrimidin-3-yl)-3-hydroxycyclobutanecarboxamide] | 27.4 nM
C[C@]1(C(=O)Nc2cnn3ccc(N4CCC[C@@H]4c4cc(F)ccc4F)nc23)CCCN1 [Example 53, (R)—N-(5-((R)-2-(2,5-difluorophenyl)pyrrolidin-1-yl)pyrazolo[1,5-a]pyrimidin-3-yl)-2-methylpyrrolidine-2-carboxamide] | 31 nM
O=C(Nc1cnn2ccc(N3CCC[C@@H]3c3cc(F)ccc3F)nc12)[C@H]1CC[C@H](O)C1 [Example 95, (1S,3S)—N-(5-((R)-2-(2,5-difluorophenyl)pyrrolidin-1-yl)pyrazolo[1,5-a]pyrimidin-3-yl)-3-hydroxycyclopentanecarboxamide] | 42.5 nM
CC(C)C(=O)Nc1cnn2ccc(N3CCC[C@@H]3c3cc(F)ccc3F)nc12 [Example 5, (R)—N-(5-(2-(2,5-difluorophenyl)pyrrolidin-1-yl)pyrazolo[1,5-a]pyrimidin-3-yl)isobutyramide] | 12.1 nM
O=C(Nc1ccc(F)cc1)Nc1cnn2ccc(N3CCC[C@@H]3c3cc(F)ccc3F)nc12 [Example 18, (R)-1-(5-(2-(2,5-difluorophenyl)pyrrolidin-1-yl)pyrazolo[1,5-a]pyrimidin-3-yl)-3-(4-fluorophenyl)urea] | 4.6 nM
COC(=O)C1(C(=O)Nc2cnn3ccc(N4CCC[C@@H]4c4cc(F)ccc4F)nc23)CC1 [Example 33, (R)-methyl 1-(5-(2-(2,5-difluorophenyl)pyrrolidin-1-yl)pyrazolo[1,5-a]pyrimidin-3-ylcarbamoyl)cyclopropanecarboxylate] | 4.7 nM
O=C(Nc1cnn2ccc(N3CCC[C@@H]3c3cc(F)ccc3F)nc12)c1ccc(Cl)cn1 [Example 61, (R)-5-chloro-N-(5-(2-(2,5-difluorophenyl)pyrrolidin-1-yl)pyrazolo[1,5-a]pyrimidin-3-yl)picolinamide] | 4 nM
CC(C)(C)C(=O)Nc1cnn2ccc(N3CCC[C@@H]3c3cc(F)ccc3F)nc12 [Example 45, (R)—N-(5-(2-(2,5-difluorophenyl)pyrrolidin-1-yl)pyrazolo[1,5-a]pyrimidin-3-yl)pivalamide] | 6.3 nM
O=C(Nc1cnn2ccc(N3CCC[C@@H]3c3cc(F)ccc3F)nc12)c1ccccn1 [Example 59, (R)—N-(5-(2-(2,5-difluorophenyl)pyrrolidin-1-yl)pyrazolo[1,5-a]pyrimidin-3-yl)picolinamide] | 1.7 nM

The next lines start with the values.

IC50 | SMILES
10.1 nM | O=C(Nc1cnn2ccc(N3CCC[C@@H]3c3cc(F)ccc3F)nc12)C(=O)N1CC(O)C1 [Example 101, (R)—N-(5-(2-(2,5-difluorophenyl)pyrrolidin-1-yl)pyrazolo[1,5-a]pyrimidin-3-yl)-2-(3-hydroxyazetidin-1-yl)-2-oxo acetamide]
320 nM | Cc1cnccc1C(=O)Nc1cnn2ccc(N3CCC[C@@H]3c3cccc(F)c3)nc12 [Example 80, (R)—N-(5-(2-(3-fluorophenyl)pyrrolidin-1-yl)pyrazolo[1,5-a]pyrimidin-3-yl)-3-methylisonicotinamide]
19.2 nM | Cn1nc(C(=O)Nc2cnn3ccc(N4CCC[C@@H]4c4cccc(F)c4)nc23)ccc1=O [Example 6, (R)—N-(5-(2-(3-fluorophenyl)pyrrolidin-1-yl)pyrazolo[1,5-a]pyrimidin-3-yl)-1-methyl-6-oxo-1,6-dihydropyridazine-3-carboxamide]
45 nM | CC(C)N1CCN(C(=O)Nc2cnn3ccc(N4CCC[C@@H]4c4cc(F)ccc4F)nc23)CC1 [Example 26, (R)—N-(5-(2-(2,5-difluorophenyl)pyrrolidin-1-yl)pyrazolo[1,5-a]pyrimidin-3-yl)-4-isopropylpiperazine-1-carboxamide]
4.1 nM | O=C(Nc1cnn2ccc(N3CCC[C@@H]3c3cc(F)ccc3Cl)nc12)N1CC[C@@H](O)C1 [Example 41, (R)—N-(5-((R)-2-(2-chloro-5-fluorophenyl)pyrrolidin-1-yl)pyrazolo[1,5-a]pyrimidin-3-yl)-3-hydroxypyrrolidine-1-carboxamide]
25.7 nM | O=C(Nc1cnn2ccc(N3CCC[C@@H]3c3cc(F)ccc3C(F)F)nc12)N1CCC[C@@H](O)C1 [Example 39, (R)—N-(5-((R)-2-(2-(difluoromethyl)-5-fluorophenyl)pyrrolidin-1-yl)pyrazolo[1,5-a]pyrimidin-3-yl)-3-hydroxypiperidine-1-carboxamide]
8 nM | O=C(Nc1cnn2ccc(N3CCC[C@@H]3c3cc(F)ccc3Cl)nc12)N1CC[C@H](O)C1 [Example 81, (S)—N-(5-((R)-2-(2-chloro-5-fluorophenyl)pyrrolidin-1-yl)pyrazolo[1,5-a]pyrimidin-3-yl)-3-hydroxypyrrolidine-1-carboxamide]
14 nM | O=C(Nc1cnn2ccc(N3CCC[C@@H]3c3cc(F)ccc3C(F)(F)F)nc12)N1CCC[C@@H](O)C1 [Example 86, (R)—N-(5-((R)-2-(5-fluoro-2-(trifluoromethyl)phenyl)pyrrolidin-1-yl)pyrazolo[1,5-a]pyrimidin-3-yl)-3-hydroxypiperidine-1-carboxamide]
821 nM | O=C(Nc1cnn2ccc(N3CCC[C@@H]3c3cccc(F)c3)nc12)N1CCOCC1 [Example 9, (R)—N-(5-(2-(3-fluorophenyl)pyrrolidin-1-yl)pyrazolo[1,5-a]pyrimidin-3-yl)morpholine-4-carboxamide]
156 nM | O=C(Nc1cnn2ccc(N3CCC[C@@H]3c3cncc(F)c3)nc12)N1CC[C@H](O)C1 [Example 88, (S)—N-(5-((R)-2-(5-fluoropyridin-3-yl)pyrrolidin-1-yl)pyrazolo[1,5-a]pyrimidin-3-yl)-3-hydroxypyrrolidine-1-carboxamide]
35.4 nM | Cn1ccnc1C(=O)Nc1cnn2ccc(N3CCC[C@@H]3c3cccc(F)c3)nc12 [Example 83, (R)—N-(5-(2-(3-fluorophenyl)pyrrolidin-1-yl)pyrazolo[1,5-a]pyrimidin-3-yl)-1-methyl-1H-imidazole-2-carboxamide]
53.3 nM | O=C(Nc1cnn2ccc(N3CCC[C@@H]3c3cccc(F)c3)nc12)c1cccnc1 [Example 76, (R)—N-(5-(2-(3-fluorophenyl)pyrrolidin-1-yl)pyrazolo[1,5-a]pyrimidin-3-yl)nicotinamide]
154 nM | C[C@H]1CN(C(=O)Nc2cnn3ccc(N4CCC[C@@H]4c4cc(F)ccc4F)nc23)CCN1C(=O)OC(C)(C)C [Example 30, (S)-tert-butyl 4-(5-((R)-2-(2,5-difluorophenyl)pyrrolidin-1-yl)pyrazolo[1,5-a]pyrimidin-3-ylcarbamoyl)-2-methylpiperazine-1-carboxylate]
45.5 nM | CCS(=O)(=O)Nc1ccc(C(=O)Nc2cnn3ccc(N4CCC[C@@H]4c4cccc(F)c4)nc23)cc1 [Example 72, (R)-4-(ethylsulfonamido)-N-(5-(2-(3-fluorophenyl)pyrrolidin-1-yl)pyrazolo[1,5-a]pyrimidin-3-yl)benzamide]
188 nM | CC1(c2cccc(F)c2)CCCN1c1ccn2ncc(NC(=O)N3CC(O)C3)c2n1 (stereo not shown) [Example 10, N-(5-(2-(3-fluorophenyl)-2-methylpyrrolidin-1-yl)pyrazolo[1,5-a]pyrimidin-3-yl)-3-hydroxyazetidine-1-carboxamide]
47 nM | Cc1ccc(C(=O)Nc2cnn3ccc(N4CCC[C@@H]4c4cccc(F)c4)nc23)cn1 [Example 78, (R)—N-(5-(2-(3-fluorophenyl)pyrrolidin-1-yl)pyrazolo[1,5-a]pyrimidin-3-yl)-6-methylnicotinamide]
30.8 nM | O=C(Nc1cnn2ccc(N3CCC[C@@H]3c3cc(F)ccc3C(F)F)nc12)N1CCC[C@H](O)C1 [Example 40, (S)—N-(5-((R)-2-(2-(difluoromethyl)-5-fluorophenyl)pyrrolidin-1-yl)pyrazolo[1,5-a]pyrimidin-3-yl)-3-hydroxypiperidine-1-carboxamide]
13.4 nM | O=C(Nc1cnn2ccc(N3CCC[C@@H]3c3cc(F)ccc3Cl)nc12)N1CCC[C@H](O)C1 [Example 44, (S)—N-(5-((R)-2-(2-chloro-5-fluorophenyl)pyrrolidin-1-yl)pyrazolo[1,5-a]pyrimidin-3-yl)-3-hydroxypiperidine-1-carboxamide]
